According to patent EP0190900A2, “Cephalosporin compounds, their production, and pharmaceutical compositions containing them” (YAMANOUCHI PHARMACEUTICAL CO. LTD., priority 1985, dated 1986):
Values after ≈ are worked out from the molar mass of the structure shown.

Assays:
[1] = test system: E. coli D-1; test: Antibacterial activity (minimum effective inhibitory concentration); format: cell-based; conditions: Escherichia coli, D1
From the text: (§1) Antibacterial activities (minimum effective inhibitory concentrations) of compounds of formula I (taken from the following Examples) are shown in the following Table.

[2] = test system: K. pneumoniae ATCC 10031; test: as above; format: cell-based; conditions: Klebsiella pneumoniae, ATCC10031
From the text: as §1

[3] = test system: P. aeruginosa NCTC 10490; test: as above; format: cell-based; conditions: Pseudomonas aeruginosa, NCTC10490
From the text: as §1

[4] = test system: S. aureus FDA 209P JC-1; test: as above; format: cell-based; conditions: Staphylococcus aureus, FDA209P
From the text: as §1

[5] = test system: S. epidermidis IID 866; test: as above; format: cell-based; conditions: Staphylococcus epidermidis, IID866
From the text: as §1

[6] = Acute toxicity, intravenous injection into mice; format: in vivo
Experimental: Some of the compounds of this invention have low toxicity (acute toxicity).
The compound of Example 4 has, in particular, low toxicity.
200 mg of /the compound of Example 4 was dissolved in 2 ml of distilled water and after adjusting the pH of the solution to about 7 by addition of sodium hydrogen carbonate to form an injection solution, the solution was intravenously injected into mice (body weights: 26-28 g; ICR ? 5W) over a period of 4 minutes at a rate of 1 ml/kg. There were no lethal cases for administration doses below 4.0 g/kg.

| SMILES | MIC [1] [µg/mL] | MIC [2] [µg/mL] | MIC [3] [µg/mL] | MIC [4] [µg/mL] | MIC [5] [µg/mL] | administration doses with no lethal cases ([6]; ICR mice (26-28 g), intravenous injection over 4 minutes, aqueous solution at about pH 7) | toxicity (acute toxicity) ([6]; statement in words) |
| --- | --- | --- | --- | --- | --- | --- | --- |
| CON=C(C)C[n+]1ccc(SCC2=C(C(=O)[O-])N3C(=O)C(NC(=O)C(=NOC)c4csc(N)n4)C3SC2)cc1 (stereo not drawn) [Example 17, (Z)-7-[α-(2-amino-4-thiazolyl)-α-(methoxyimino)acetamido]-3-(1-(2-methoxyimino-propyl)-4-pyridinio)thiomethyl-Δ^3-cephem-4-carboxylate] | 0.013 (≈ 0.022 µM) | 0.013 (≈ 0.022 µM) | 0.78 (≈ 1.32 µM) | 0.2 (≈ 0.338 µM) | 0.2 (≈ 0.338 µM) |  |  |
| CO/N=C(\C(=O)N[C@@H]1C(=O)N2C(C(=O)[O-])=C(CSc3cc[n+](Cc4c[nH]cn4)cc3)CS[C@H]12)c1csc(N)n1 [Example 15, (Z)-7-[α-(2-amino-4-thiazolyl)-α-(methoxyimino)acetamido]-3-(1-(4-imidazolyl)methyl-4-pyridinio)thiomethyl-Δ^3-cephem-4-carboxylate] | 0.013 (≈ 0.0222 µM) | 0.013 (≈ 0.0222 µM) | 0.39 (≈ 0.665 µM) | 0.2 (≈ 0.341 µM) | 0.1 (≈ 0.17 µM) |  |  |
| CC(=O)C[n+]1ccc(SCC2=C(C(=O)[O-])N3C(=O)C(NC(=O)C(=NOCCF)c4csc(N)n4)C3SC2)cc1 (stereo not drawn) [Example 12, (Z)-7-[α-(2-amino-4-thiazolyl)-α-(2-fluoroethoxyimino)acetamidoa-3-[1-acetonyl-4-pyridinio]thiomethyl-Δ^3-cephem-4-carboxylate] | 0.025 (≈ 0.042 µM) | 0.013 (≈ 0.0219 µM) | 0.39 (≈ 0.656 µM) | 0.2 (≈ 0.336 µM) | 0.1 (≈ 0.168 µM) |  |  |
| CO/N=C(\C(=O)N[C@@H]1C(=O)N2C(C(=O)O)=C(CSc3nnnn3C)CS[C@H]12)c1csc(N)n1 [Cefmeno-xime] | 0.025 (≈ 0.0489 µM) | ≤ 0.006 | 0.2 (≈ 0.391 µM) | 1.56 (≈ 3.05 µM) | 0.39 (≈ 0.762 µM) |  |  |
| CO/N=C(\C(=O)N[C@@H]1C(=O)N2C(C(=O)[O-])=C(CSc3cc[n+](CC(C)=O)cc3)CS[C@H]12)c1csc(N)n1 [Example 4, (Z)-7-[α-(2-amino-4-thiazolyl)-α-(methoxyimino)acetamido]-3-[1-acetonyl-4-pyridinio)thiomethyl-Δ^3-cephem-4-carboxylate] | ≤ 0.006 | ≤ 0.006 | 0.2 (≈ 0.355 µM) | 0.2 (≈ 0.355 µM) | 0.1 (≈ 0.178 µM) | below 4.0 g/kg | low toxicity |
| CCCC(=O)C[n+]1ccc(SCC2=C(C(=O)[O-])N3C(=O)C(NC(=O)C(=NOC)c4csc(N)n4)C3SC2)cc1 (stereo not drawn) [Example 20, (Z)-7-[α-(2-Amino-4-thiazolyl)-α-(methoxyimino)acetamido]-3-[(1-(2-oxopentyl)-4-pyridinio]thiomethyl-Δ^3-cephem-4-carboxylate] | ≤ 0.006 | ≤ 0.006 | 0.39 (≈ 0.66 µM) | 0.2 (≈ 0.339 µM) | 0.1 (≈ 0.169 µM) |  |  |
| C#CC[n+]1ccc(SCC2=C(C(=O)[O-])N3C(=O)[C@@H](NC(=O)/C(=N\OC)c4csc(N)n4)[C@H]3SC2)cc1 [Example 9, (Z)-7-[a-(2-amino-4-thiazolyl)-a-(methoxyimino)acetamido]-3-[1-propargyl-4-pyridinio]thiomethyl-Δ^3-cephem-4-carboxylate] | ≤ 0.006 | ≤ 0.006 | 0.39 (≈ 0.716 µM) | 0.1 (≈ 0.184 µM) | 0.1 (≈ 0.184 µM) |  |  |
| CO/N=C(\C(=O)N[C@@H]1C(=O)N2C(C(=O)[O-])=C(CSc3cc[n+](CC#N)cc3)CS[C@H]12)c1csc(N)n1 [Example 1, (Z)-7-[α-(2-amino-4-thiazolyl)-α-(methoxyimino)acetamido]-3-(1-cyanomethyl-4-pyridinio)thiomethyl-Δ^3-cephem-4-carboxylate] | 0.013 (≈ 0.0238 µM) | 0.013 (≈ 0.0238 µM) | 0.39 (≈ 0.715 µM) | 0.2 (≈ 0.367 µM) | 0.1 (≈ 0.183 µM) |  |  |
